Data reported in ChEMBL document CHEMBL3792369, “Nahuoic Acids B-E, Polyhydroxy Polyketides from the Marine-Derived Streptomyces sp. SCSGAA 0027” (2016).
The source made the active and inactive calls. The calls are words filed in the database; no cut-off is given here.

How the values were obtained:
Shewanella oneidensis [1] = experiment: Antibiofilm activity against Shewanella oneidensis MR-1 assessed as inhibition of biofilm formation at 200 ug/ml by crystal violet assay; format: functional
[2] = biological target: Acetylcholinesterase (Homo sapiens) (UniProt P22303); experiment: Inhibition of acetylcholinesterase (unknown origin)
Chain of Acetylcholinesterase (Homo sapiens) (P22303 whole entry): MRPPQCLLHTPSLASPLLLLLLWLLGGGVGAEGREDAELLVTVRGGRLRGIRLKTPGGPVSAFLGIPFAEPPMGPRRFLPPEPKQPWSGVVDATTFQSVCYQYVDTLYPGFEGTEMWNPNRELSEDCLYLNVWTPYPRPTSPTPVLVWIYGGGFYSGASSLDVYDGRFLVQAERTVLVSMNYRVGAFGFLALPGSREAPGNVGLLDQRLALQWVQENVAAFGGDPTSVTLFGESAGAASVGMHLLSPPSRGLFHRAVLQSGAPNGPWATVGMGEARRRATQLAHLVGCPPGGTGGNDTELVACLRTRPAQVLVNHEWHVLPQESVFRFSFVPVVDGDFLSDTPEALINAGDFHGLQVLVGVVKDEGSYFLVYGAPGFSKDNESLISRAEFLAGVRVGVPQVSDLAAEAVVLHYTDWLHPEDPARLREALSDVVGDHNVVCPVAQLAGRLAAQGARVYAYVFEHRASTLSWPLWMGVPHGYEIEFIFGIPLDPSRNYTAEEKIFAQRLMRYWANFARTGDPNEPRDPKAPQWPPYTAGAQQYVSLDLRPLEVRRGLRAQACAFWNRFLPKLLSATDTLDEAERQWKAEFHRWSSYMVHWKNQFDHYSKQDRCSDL

Shewanella oneidensis [3] = experiment: Antibacterial activity against Shewanella oneidensis MR-1; format: functional
K562 = experiment: Cytotoxicity against human K562 cells; format: functional, cell-based
NCI-H1975 = experiment: Cytotoxicity against human NCI-H1975 cells; format: functional, cell-based
Staphylococcus aureus [4] = experiment: Antibacterial activity against Staphylococcus aureus; format: functional, organism-based
BGC-823 = experiment: Cytotoxicity against human BGC823 cells; format: functional, cell-based
Huh-7 = experiment: Cytotoxicity against human HuH7 cells; format: functional, cell-based
HL-60 = experiment: Cytotoxicity against human HL60 cells; format: functional, cell-based
Staphylococcus aureus [5] = experiment: Antibiofilm activity against Staphylococcus aureus assessed as inhibition of biofilm formation by crystal violet assay; format: functional, organism-based
MCF7 = experiment: Cytotoxicity against human MCF7 cells; format: functional, cell-based

SMILES	inhibition at 200 µg/mL (Shewanella oneidensis [1])	inhibition [2]	Activity (Shewanella oneidensis [3])	Activity (K562)	Activity (NCI-H1975)	Activity (Staphylococcus aureus [4])	Activity (BGC-823)	Activity (Huh-7)	Activity (HL-60)	Activity (Staphylococcus aureus [5])	Activity (MCF7)
CC1=C[C@@]2(C)[C@@H]([C@@H](/C=C(\C)C(=O)O)[C@@H]1/C(C)=C/C[C@H](O)C[C@@H](O)C[C@@H](O)[C@H](C)[C@@H](O)C(C)C)[C@@H](C)CC[C@H]2O	95%	inactive	inactive	inactive	inactive	inactive	inactive	inactive	inactive	inactive	inactive
CC1=C[C@@]2(C)[C@@H]([C@@H](/C=C(\C)C(=O)O)[C@@H]1/C(C)=C/C[C@H](O)C[C@@H](O)[C@H](C)[C@@H](O)C(C)C)[C@@H](C)CC[C@H]2O	94%	inactive	inactive	inactive	inactive	inactive	inactive	inactive	inactive	inactive	inactive
CC1=C[C@@]2(C)[C@H]([C@@H](C)[C@H](O)C[C@H]2O)[C@@H](/C=C(\C)C(=O)O)[C@@H]1/C(C)=C/C[C@H](O)C[C@@H](O)[C@H](C)[C@@H](O)C(C)C	98%	inactive	inactive	inactive	inactive	inactive	inactive	inactive	inactive	inactive	inactive
CC1=C[C@@]2(C)[C@H]([C@@H](C)[C@H](O)C[C@H]2O)[C@@H](/C=C(\C)C(=O)O)[C@@H]1/C(C)=C/C[C@H](O)C[C@@H](O)C[C@@H](O)[C@H](C)[C@@H](O)C(C)C	91%	inactive	inactive	inactive	inactive	inactive	inactive	inactive	inactive	inactive	inactive
CC1=C[C@@]2(C)[C@H]([C@@H](C)[C@H](O)[C@H](O)[C@H]2O)[C@@H](/C=C(\C)C(=O)O)[C@@H]1/C(C)=C/C[C@H](O)C[C@@H](O)[C@H](C)[C@@H](O)C(C)C	63%	inactive	inactive	inactive	inactive	inactive	inactive	inactive	inactive	inactive	inactive
